Reference: PubChem BioAssay AID1033 (Sanford-Burnham Center for Chemical Genomics, 2008)
The source made the active and inactive calls. No rule for the calls is given here.

Target: Chaperone protein DnaK (Escherichia coli (strain K12)) (UniProt P0A6Y8)
Test: E. coli DnaK SBD ligand binding – biophysical, NMR, chaperone (AID 1033)
Conditions: Purified DnaK SBD

Chaperone protein DnaK (Escherichia coli (strain K12)), sequence (P0A6Y8 whole entry, looked up): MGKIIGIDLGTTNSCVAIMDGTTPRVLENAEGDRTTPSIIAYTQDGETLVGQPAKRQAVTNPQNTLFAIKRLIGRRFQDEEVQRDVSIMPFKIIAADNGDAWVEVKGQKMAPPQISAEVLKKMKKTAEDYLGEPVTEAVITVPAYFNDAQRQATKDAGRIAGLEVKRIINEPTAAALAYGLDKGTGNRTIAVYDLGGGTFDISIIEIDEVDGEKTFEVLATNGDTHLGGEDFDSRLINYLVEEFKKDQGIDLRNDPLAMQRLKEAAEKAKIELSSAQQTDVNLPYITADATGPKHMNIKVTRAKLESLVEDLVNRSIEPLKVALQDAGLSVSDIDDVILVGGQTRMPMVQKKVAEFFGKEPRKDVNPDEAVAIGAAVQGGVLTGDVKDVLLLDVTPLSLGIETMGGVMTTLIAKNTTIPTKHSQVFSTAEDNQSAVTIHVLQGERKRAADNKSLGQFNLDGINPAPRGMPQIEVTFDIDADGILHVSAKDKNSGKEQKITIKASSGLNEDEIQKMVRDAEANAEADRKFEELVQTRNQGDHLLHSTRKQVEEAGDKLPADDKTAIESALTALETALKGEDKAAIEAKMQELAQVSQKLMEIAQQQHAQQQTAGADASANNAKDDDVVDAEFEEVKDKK

Row | Kd | Structure (SMILES)
1 | > 4 mM (inactive) | CC(=O)OCC[C@H](C)CCC=C(C)C
2 | > 4 mM (inactive) | O=C(Nc1ccc(Cl)cc1)N1CCCC1
